Results: PubChem BioAssay AID248 (DTP/NCI, 2004)
Where “and” joins values, the source holds several entries; their conditions need not be identical. Equal values may be shown once. Toxic doses and inconclusive results are not listed. No stated cut-off is given here; in the data, active means T/C of 150% or more; inactive means T/C below 125%.

Tested on: L1210 leukemia ip in BDF1 mice, survival T/C
Assay: NCI In Vivo Anticancer Drug Screen. Data for tumor model L1210 Leukemia (intraperitoneal) in B6D2F1 (BDF1) mice
Settings: higher = longer survival
Outline: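 Tumor was transplanted into mice, which were then dosed with test compound or vehicle alone. Survival was recorded for each group, and the treated figure was expressed relative to the control figure.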

Measured: T/C

CSc1cccc(N2C(=O)C=CC2=O)c1
inactive: endpoint: mean survival time, dose: 2.5 mg/kg/injection, schedule: Q04DX002 (ip), vehicle: Klucel (hydroxypropylcellulose) (HPC) 92 % of control | endpoint: mean survival time, dose: 5.0 mg/kg/injection, schedule: Q04DX002 (ip), vehicle: Klucel (hydroxypropylcellulose) (HPC) 88 % of control | endpoint: mean survival time, dose: 10.0 mg/kg/injection, schedule: Q04DX002 (ip), vehicle: Klucel (hydroxypropylcellulose) (HPC) 95 % of control and 97 % of control

C=CCSC(=S)OCC
inactive: endpoint: mean survival time, dose: 25.0 mg/kg/injection, schedule: Q01DX009 (ip), vehicle: saline with Tween-80 88 % of control | endpoint: mean survival time, dose: 50.0 mg/kg/injection, schedule: Q01DX009 (ip), vehicle: saline with Tween-80 104 % of control | endpoint: mean survival time, dose: 100.0 mg/kg/injection, schedule: Q01DX009 (ip), vehicle: saline with Tween-80 109 % of control

CC/C(=C(/CC)c1ccc(O)cc1)c1ccc(O)cc1
inactive: endpoint: mean survival time, dose: 6.44 mg/kg/injection, schedule: Q01DX Z (sc), vehicle: steriod suspending solution 98 % of control | endpoint: mean survival time, dose: 12.88 mg/kg/injection, schedule: Q01DX Z (sc), vehicle: steriod suspending solution 109 % of control | endpoint: mean survival time, dose: 25.0 mg/kg/injection, schedule: Q01DX009 (ip), vehicle: carboxymethylcellulose (CMC) 87 % of control | endpoint: mean survival time, dose: 25.75 mg/kg/injection, schedule: Q01DX Z (sc), vehicle: steriod suspending solution 107 % of control | endpoint: mean survival time, dose: 50.0 mg/kg/injection, schedule: Q01DX001 (ip), vehicle: saline 90 % of control | endpoint: mean survival time, dose: 50.0 mg/kg/injection, schedule: Q01DX009 (ip), vehicle: carboxymethylcellulose (CMC) 94 % of control | endpoint: mean survival time, dose: 51.5 mg/kg/injection, schedule: Q01DX Z (sc), vehicle: steriod suspending solution 100 % of control | endpoint: mean survival time, dose: 100.0 mg/kg/injection, schedule: Q01DX001 (ip), vehicle: saline 94 % of control | endpoint: mean survival time, dose: 100.0 mg/kg/injection, schedule: Q01DX009 (ip), vehicle: carboxymethylcellulose (CMC) 95 % of control | endpoint: mean survival time, dose: 200.0 mg/kg/injection, schedule: Q01DX001 (ip), vehicle: saline 95 % of control | endpoint: mean survival time, dose: 200.0 mg/kg/injection, schedule: Q01DX009 (ip), vehicle: carboxymethylcellulose (CMC) 91 % of control | endpoint: mean survival time, dose: 400.0 mg/kg/injection, schedule: Q01DX001 (ip), vehicle: saline 87 % of control | endpoint: median survival time, dose: 8.0 mg/kg/injection, schedule: Q03HX016 (ip), vehicle: saline with Tween-80 97 % of control | endpoint: median survival time, dose: 8.0 mg/kg/injection, schedule: Q03HX024 (ip), vehicle: saline with Tween-80 98 % of control | endpoint: median survival time, dose: 12.5 mg/kg/injection, schedule: Q01DX009 (sc), vehicle: steriod suspending solution 100 % of control and 111 % of control | endpoint: median survival time, dose: 16.0 mg/kg/injection, schedule: Q01DX009 (ip), vehicle: saline with Tween-80 113 % of control | endpoint: median survival time, dose: 16.0 mg/kg/injection, schedule: Q03HX008 (ip), vehicle: saline with Tween-80 101 % of control | endpoint: median survival time, dose: 16.0 mg/kg/injection, schedule: Q03HX016 (ip), vehicle: saline with Tween-80 97 % of control | endpoint: median survival time, dose: 16.0 mg/kg/injection, schedule: Q03HX024 (ip), vehicle: saline with Tween-80 91 % of control | endpoint: median survival time, dose: 25.0 mg/kg/injection, schedule: Q01DX009 (sc), vehicle: steriod suspending solution 100 % of control and 106 % of control | endpoint: median survival time, dose: 32.0 mg/kg/injection, schedule: Q01DX009 (ip), vehicle: saline with Tween-80 110 % of control | endpoint: median survival time, dose: 32.0 mg/kg/injection, schedule: Q03HX008 (ip), vehicle: saline with Tween-80 97 % of control | endpoint: median survival time, dose: 32.0 mg/kg/injection, schedule: Q03HX016 (ip), vehicle: saline with Tween-80 97 % of control | endpoint: median survival time, dose: 32.0 mg/kg/injection, schedule: Q03HX024 (ip), vehicle: saline with Tween-80 98 % of control | endpoint: median survival time, dose: 50.0 mg/kg/injection, schedule: Q01DX009 (sc), vehicle: steriod suspending solution 100 % of control and 105 % of control | endpoint: median survival time, dose: 64.0 mg/kg/injection, schedule: Q01DX009 (ip), vehicle: saline with Tween-80 103 % of control | endpoint: median survival time, dose: 64.0 mg/kg/injection, schedule: Q03HX008 (ip), vehicle: saline with Tween-80 103 % of control | endpoint: median survival time, dose: 64.0 mg/kg/injection, schedule: Q03HX016 (ip), vehicle: saline with Tween-80 100 % of control | endpoint: median survival time, dose: 64.0 mg/kg/injection, schedule: Q03HX024 (ip), vehicle: saline with Tween-80 94 % of control | endpoint: median survival time, dose: 64.0 mg/kg/injection, schedule: Q04DX003 (ip), vehicle: saline with Tween-80 100 % of control | endpoint: median survival time, dose: 64.0 mg/kg/injection, schedule: Q08DX002 (ip), vehicle: saline with Tween-80 106 % of control | endpoint: median survival time, dose: 100.0 mg/kg/injection, schedule: Q01DX009 (sc), vehicle: steriod suspending solution 100 % of control and 105 % of control | endpoint: median survival time, dose: 128.0 mg/kg/injection, schedule: Q01DX001 (ip), vehicle: saline with Tween-80 107 % of control | endpoint: median survival time, dose: 128.0 mg/kg/injection, schedule: Q01DX009 (ip), vehicle: saline with Tween-80 102 % of control | endpoint: median survival time, dose: 128.0 mg/kg/injection, schedule: Q04DX003 (ip), vehicle: saline with Tween-80 101 % of control | endpoint: median survival time, dose: 128.0 mg/kg/injection, schedule: Q08DX002 (ip), vehicle: saline with Tween-80 104 % of control | endpoint: median survival time, dose: 256.0 mg/kg/injection, schedule: Q01DX001 (ip), vehicle: saline with Tween-80 109 % of control | endpoint: median survival time, dose: 256.0 mg/kg/injection, schedule: Q04DX003 (ip), vehicle: saline with Tween-80 107 % of control | endpoint: median survival time, dose: 256.0 mg/kg/injection, schedule: Q08DX002 (ip), vehicle: saline with Tween-80 98 % of control | endpoint: median survival time, dose: 512.0 mg/kg/injection, schedule: Q01DX001 (ip), vehicle: saline with Tween-80 108 % of control | endpoint: median survival time, dose: 512.0 mg/kg/injection, schedule: Q08DX002 (ip), vehicle: saline with Tween-80 92 % of control | endpoint: median survival time, dose: 1024.0 mg/kg/injection, schedule: Q08DX002 (ip), vehicle: saline with Tween-80 102 % of control | endpoint: median survival time, dose: 2048.0 mg/kg/injection, schedule: Q08DX002 (ip), vehicle: saline with Tween-80 102 % of control

N#Cc1c(=O)[nH]c2ccccc2[n+]1[O-]
inactive: endpoint: mean survival time, dose: 50.0 mg/kg/injection, schedule: Q01DX009 (ip), vehicle: Klucel (hydroxypropylcellulose) (HPC) 107 % of control | endpoint: mean survival time, dose: 100.0 mg/kg/injection, schedule: Q01DX009 (ip), vehicle: Klucel (hydroxypropylcellulose) (HPC) 104 % of control

CC(=O)C1CC[C@@]2(C)C(CC[C@H]3[C@@H]4CCC[C@H]([C@H](C)O)[C@@]4(C)CC[C@@H]32)C1 (some centres undefined)
inactive: endpoint: mean survival time, dose: 100.0 mg/kg/injection, schedule: Q04DX003 (ip), vehicle: steriod suspending solution 106 % of control | endpoint: mean survival time, dose: 200.0 mg/kg/injection, schedule: Q04DX003 (ip), vehicle: steriod suspending solution 95 % of control | endpoint: mean survival time, dose: 400.0 mg/kg/injection, schedule: Q04DX003 (ip), vehicle: steriod suspending solution 119 % of control

Cc1ccc(NC(=O)COc2ccc(C)cc2C)cc1
inactive: endpoint: mean survival time, dose: 100.0 mg/kg/injection, schedule: Q04DX002 (ip), vehicle: gum acacia 95 % of control | endpoint: mean survival time, dose: 200.0 mg/kg/injection, schedule: Q04DX002 (ip), vehicle: gum acacia 89 % of control

COc1ccc(CNCCN2CC2)cc1
inactive: endpoint: mean survival time, dose: 10.0 mg/kg/injection, schedule: Q01DX009 (ip), vehicle: Klucel (hydroxypropylcellulose) (HPC) 108 % of control | endpoint: mean survival time, dose: 20.0 mg/kg/injection, schedule: Q01DX009 (ip), vehicle: Klucel (hydroxypropylcellulose) (HPC) 106 % of control | endpoint: mean survival time, dose: 40.0 mg/kg/injection, schedule: Q01DX009 (ip), vehicle: Klucel (hydroxypropylcellulose) (HPC) 98 % of control

O=C(CCN1CCC(c2ccccc2)CC1)c1ccc(F)cc1
inactive: endpoint: mean survival time, dose: 100.0 mg/kg/injection, schedule: Q01DX001 (ip), vehicle: carboxymethylcellulose (CMC) 106 % of control | endpoint: mean survival time, dose: 200.0 mg/kg/injection, schedule: Q01DX001 (ip), vehicle: carboxymethylcellulose (CMC) 93 % of control

Cc1ccc2[nH]c(=S)n(-c3ccc(Cl)cc3)c(=O)c2c1
inactive: endpoint: mean survival time, dose: 100.0 mg/kg/injection, schedule: Q04DX003 (ip), vehicle: carboxymethylcellulose (CMC) 97 % of control | endpoint: mean survival time, dose: 200.0 mg/kg/injection, schedule: Q04DX003 (ip), vehicle: carboxymethylcellulose (CMC) 88 % of control | endpoint: mean survival time, dose: 400.0 mg/kg/injection, schedule: Q04DX003 (ip), vehicle: carboxymethylcellulose (CMC) 93 % of control
